Source: patent US4737494A, “1,3-dithiole derivatives and pharmaceutical compositions” (priority 1984, dated 1988)

Test system: acute liver injury induced by carbon tetrachloride
Assay: Protective effect on acute liver injury induced by carbon tetrachloride (mice, oral): plasma GPT activity and BSP retention
Assay type: in vivo, mice (ddY, male)
Details: 6 h before CCl4 (0.05 ml/kg p.o.); for GPT activity: plasma; for Retained BSP: plasma 30 min after BSP 75 mg/kg i.v.
Experimental: 1. Protective Effect on Acute Liver Injury Induced by Carbon Tetrachloride
A test compound was dissolved or suspended in olive oil and administered orally to mice (ddY mice, .male., 23±2 g, n=5). After 6 hours, carbon tetrachloride (0.05 ml/kg) was administered orally. 24 Hours after the administration of carbon tetrachloride, BSP (sodium sulfobromophthalein; 75 mg/kg) was administered intravenously. Thirty minutes later, the cardiac blood was collected, and GPT (glutamic-pyruvic transaminase) activity and the retention rate of BSP in the plasma were measured.

CCOC(=O)C[N+](C)=c1sccs1.[O-][Cl+3]([O-])([O-])[O-] [Compound No. 1, N-(1,3-dithiol-2-ylidene)-N-methyl-N-ethoxycarbonylmethylammonium perchlorate]
GPT activity (1 mg/kg): 3280 ± 399 Karmen units | Retained BSP (1 mg/kg): 53.2 ± 11.4 µg/mL | GPT activity (5 mg/kg): 183 ± 74 Karmen units | Retained BSP (5 mg/kg): 18.4 ± 1.3 µg/mL

CNC(=O)C[N+](C)=c1sccs1 [Compound No. 3, N-(1,3-dithiol-2-ylidene)-N-methyl-N-(N'-methylcarbamoylmethyl)ammonium perchlorate]
GPT activity (1 mg/kg): 3740 ± 430 Karmen units | Retained BSP (1 mg/kg): 67.1 ± 14.3 µg/mL | GPT activity (5 mg/kg): 541 ± 101 Karmen units | Retained BSP (5 mg/kg): 27.1 ± 10.1 µg/mL

C[N+](CCC#N)=c1sccs1.[I-] [Compound No. 4, N-(1,3-dithiol-2-ylidene)-N-methyl-N-(2-cyanoethyl)ammonium iodide]
GPT activity (1 mg/kg): 2535 ± 158 Karmen units | Retained BSP (1 mg/kg): 42.6 ± 2.3 µg/mL | GPT activity (5 mg/kg): 543 ± 92 Karmen units | Retained BSP (5 mg/kg): 29.4 ± 11.1 µg/mL

C[N+](=c1sccs1)C1CCCCC1.[O-][Cl+3]([O-])([O-])[O-] [Compound No. 7, N-(1,3-dithiol-2-ylidene)-N-methyl-N-cyclohexylammonium perchlorate]
GPT activity (1 mg/kg): 4920 ± 670 Karmen units | Retained BSP (1 mg/kg): 120.1 ± 17.1 µg/mL | GPT activity (5 mg/kg): 1400 ± 77 Karmen units | Retained BSP (5 mg/kg): 57.1 ± 5.1 µg/mL

C[N+](c1ccccc1)=c1sccs1.[O-][Cl+3]([O-])([O-])[O-] [Compound No. 8, N-(1,3-dithiol-2-ylidene)-N-methyl-N-phenylammonium perchlorate]
GPT activity (1 mg/kg): 2394 ± 193 Karmen units | Retained BSP (1 mg/kg): 39.3 ± 10.7 µg/mL | GPT activity (5 mg/kg): 117 ± 28 Karmen units | Retained BSP (5 mg/kg): 11.6 ± 1.5 µg/mL

Cc1cccc([N+](C)=c2sccs2)c1.[O-][Cl+3]([O-])([O-])[O-] [Compound No. 9, N-(1,3-dithiol-2-ylidene)-N-methyl-N-(m-tolyl)ammonium perchlorate]
GPT activity (1 mg/kg): 2250 ± 325 Karmen units | Retained BSP (1 mg/kg): 73.1 ± 14.7 µg/mL | GPT activity (5 mg/kg): 191 ± 71 Karmen units | Retained BSP (5 mg/kg): 21.4 ± 2.1 µg/mL

C[N+](Cc1ccccc1)=c1sccs1.[O-][Cl+3]([O-])([O-])[O-] [Compound No. 10, N-(1,3-dithiol-2-ylidene)-N-methyl-N-benzylammonium perchlorate]
GPT activity (1 mg/kg): 1865 ± 106 Karmen units | Retained BSP (1 mg/kg): 29.5 ± 6.0 µg/mL | GPT activity (5 mg/kg): 108 ± 27 Karmen units | Retained BSP (5 mg/kg): 16.6 ± 1.6 µg/mL

C=CC[N+](CC=C)=c1sccs1.[O-][Cl+3]([O-])([O-])[O-] [Compound No. 12, N-(1,3-dithiol-2-ylidene)-N,N-diallylammonium perchlorate]
GPT activity (1 mg/kg): 5438 ± 401 Karmen units | Retained BSP (1 mg/kg): 109.3 ± 14.8 µg/mL | GPT activity (5 mg/kg): 1241 ± 103 Karmen units | Retained BSP (5 mg/kg): 25.4 ± 5.0 µg/mL

[O-][Cl+3]([O-])([O-])[O-].c1ccc(C[N+](Cc2ccccc2)=c2sccs2)cc1 [Compound No. 16, N-(1,3-dithiol-2-ylidene)-N,N-dibenzylammonium perchlorate]
GPT activity (1 mg/kg): 4121 ± 311 Karmen units | Retained BSP (1 mg/kg): 107.4 ± 13.9 µg/mL | GPT activity (5 mg/kg): 1017 ± 37 Karmen units | Retained BSP (5 mg/kg): 21.8 ± 6.0 µg/mL

COC(=O)CC(C(=O)OC)[N+](C)=c1sccs1.[O-][Cl+3]([O-])([O-])[O-] (stereo not shown) [Compound No. 17, N-(1,3-dithiol-2-ylidene)-N-methyl-N-(1,2-dimethoxycarbonylethyl)ammonium perchlorate]
GPT activity (1 mg/kg): 4760 ± 298 Karmen units | Retained BSP (1 mg/kg): 135 ± 8.9 µg/mL | GPT activity (5 mg/kg): 3883 ± 324 Karmen units | Retained BSP (5 mg/kg): 86 ± 11.1 µg/mL

CC(C)CC(C(=O)OC(C)C)[N+](C)=c1sccs1.[O-][Cl+3]([O-])([O-])[O-] (stereo not shown) [Compound No. 18, N-(1,3-dithiol-2-ylidene)-N-methyl-N-(3-methyl-1-isopropoxycarbonylbutyl)ammonium perchlorate]
GPT activity (1 mg/kg): 4100 ± 615 Karmen units | Retained BSP (1 mg/kg): 106.9 ± 17.5 µg/mL | GPT activity (5 mg/kg): 3250 ± 365 Karmen units | Retained BSP (5 mg/kg): 44.1 ± 5.2 µg/mL

[O-][Cl+3]([O-])([O-])[O-].c1csc(=[N+]2CCOCC2)s1 [Compound No. 26, 4-(1,3-dithiol-2-ylidene)morpholinium perchlorate]
GPT activity (1 mg/kg): 483 ± 178 Karmen units | Retained BSP (1 mg/kg): 21.6 ± 2.7 µg/mL | GPT activity (5 mg/kg): 113 ± 32 Karmen units | Retained BSP (5 mg/kg): 13.8 ± 2.5 µg/mL

[O-][Cl+3]([O-])([O-])[O-].c1csc(=[N+]2CCCCC2)s1 [Compound No. 34, 1-(1,3-dithiol-2-ylidene)piperidinium perchlorate]
GPT activity (1 mg/kg): 512 ± 205 Karmen units | Retained BSP (1 mg/kg): 26.5 ± 8.0 µg/mL | GPT activity (5 mg/kg): 116 ± 39 Karmen units | Retained BSP (5 mg/kg): 15.6 ± 3.0 µg/mL

[O-][Cl+3]([O-])([O-])[O-].c1csc(=[N+]2CCCC2)s1 [Compound No. 35, 1-(1,3-dithiol-2-ylidene)pyrrolidinium perchlorate]
GPT activity (1 mg/kg): 4239 ± 816 Karmen units | Retained BSP (1 mg/kg): 101.2 ± 22.6 µg/mL | GPT activity (5 mg/kg): 2472 ± 820 Karmen units | Retained BSP (5 mg/kg): 35.8 ± 12.4 µg/mL

CCOC(=O)C1CCC[N+]1=c1sccs1.[Cl-] (stereo not shown) [Compound No. 42, 1-(1,3-dithiol-2-ylidene)-2-ethoxycarbonyl pyrrolidinium chloride]
GPT activity (1 mg/kg): 1673 ± 214 Karmen units | Retained BSP (1 mg/kg): 53.1 ± 6.3 µg/mL | GPT activity (5 mg/kg): 231 ± 43 Karmen units | Retained BSP (5 mg/kg): 21.4 ± 3.5 µg/mL

NC(=O)C1CCC[N+]1=c1sccs1.[I-] (stereo not shown) [Compound No. 44, 1-(1,3-dithiol-2-ylidene)-2-carbamoylpyrrolidinium iodide]
GPT activity (1 mg/kg): 6311 ± 867 Karmen units | Retained BSP (1 mg/kg): 134.7 ± 21.7 µg/mL | GPT activity (5 mg/kg): 5213 ± 716 Karmen units | Retained BSP (5 mg/kg): 119.4 ± 11.8 µg/mL

CCCCCCC1CCC[N+]1=c1sccs1.[O-][Cl+3]([O-])([O-])[O-] (stereo not shown) [Compound No. 45, 1-(1,3-dithiol-2-ylidene)-2-(n-hexyl)pyrrolidinium perchlorate]
GPT activity (1 mg/kg): 4264 ± 521 Karmen units | Retained BSP (1 mg/kg): 110 ± 20.5 µg/mL | GPT activity (5 mg/kg): 1072 ± 282 Karmen units | Retained BSP (5 mg/kg): 76 ± 6.3 µg/mL

[O-][Cl+3]([O-])([O-])[O-].c1ccc(C2CCC[N+]2=c2sccs2)cc1 (stereo not shown) [Compound No. 46, 1-(1,3-dithiol-2-ylidene)-2-phenylpyrrolidinium perchlorate]
GPT activity (1 mg/kg): 3978 ± 627 Karmen units | Retained BSP (1 mg/kg): 101 ± 17.4 µg/mL | GPT activity (5 mg/kg): 1040 ± 121 Karmen units | Retained BSP (5 mg/kg): 69 ± 7.1 µg/mL

CC1CCC[N+](=c2sccs2)C1.[O-][Cl+3]([O-])([O-])[O-] (stereo not shown) [Compound No. 52, 1-(1,3-dithiol-2-ylidene)-3-methylpiperidinium perchlorate]
GPT activity (1 mg/kg): 2391 ± 325 Karmen units | Retained BSP (1 mg/kg): 87.1 ± 13.4 µg/mL | GPT activity (5 mg/kg): 138 ± 18 Karmen units | Retained BSP (5 mg/kg): 17.8 ± 4.9 µg/mL

CC1CC[N+](=c2sccs2)CC1.[O-][Cl+3]([O-])([O-])[O-] (stereo not shown) [Compound No. 53, 1-(1,3-dithiol-2-ylidene)-4-methylpiperidinium perchlorate]
GPT activity (1 mg/kg): 1843 ± 162 Karmen units | Retained BSP (1 mg/kg): 70.0 ± 19.3 µg/mL | GPT activity (5 mg/kg): 193 ± 81 Karmen units | Retained BSP (5 mg/kg): 16.9 ± 3.1 µg/mL

O=C(O)C1CC[N+](=c2sccs2)CC1.[O-][Cl+3]([O-])([O-])[O-] (stereo not shown) [Compound No. 57, 1-(1,3-dithiol-2-ylidene)-4-carboxypiperidinium perchlorate]
GPT activity (1 mg/kg): 3735 ± 374 Karmen units | Retained BSP (1 mg/kg): 101.1 ± 20.0 µg/mL | GPT activity (5 mg/kg): 2922 ± 247 Karmen units | Retained BSP (5 mg/kg): 90.1 ± 14.7 µg/mL

NC(=O)C1CC[N+](=c2sccs2)CC1.[I-] (stereo not shown) [Compound No. 58, 1-(1,3-dithiol-2-ylidene)-4-carbamoylpiperidinium iodide]
GPT activity (1 mg/kg): 3266 ± 245 Karmen units | Retained BSP (1 mg/kg): 98.1 ± 21.0 µg/mL | GPT activity (5 mg/kg): 1151 ± 181 Karmen units | Retained BSP (5 mg/kg): 41.5 ± 7.1 µg/mL

N#CC1CC[N+](=c2sccs2)CC1.[O-][Cl+3]([O-])([O-])[O-] (stereo not shown) [Compound No. 59, 1-(1,3-dithiol-2-ylidene)-4-cyanopiperidinium perchlorate]
GPT activity (1 mg/kg): 2991 ± 382 Karmen units | Retained BSP (1 mg/kg): 110.1 ± 27.3 µg/mL | GPT activity (5 mg/kg): 763 ± 118 Karmen units | Retained BSP (5 mg/kg): 49.1 ± 8.1 µg/mL

OC1CC[N+](=c2sccs2)CC1.[O-][Cl+3]([O-])([O-])[O-] (stereo not shown) [Compound No. 60, 1-(1,3-dithiol-2-ylidene)-4-hydroxypiperidinium perchlorate]
GPT activity (1 mg/kg): 1321 ± 197 Karmen units | Retained BSP (1 mg/kg): 63.4 ± 10.9 µg/mL | GPT activity (5 mg/kg): 131 ± 10 Karmen units | Retained BSP (5 mg/kg): 19.1 ± 2.1 µg/mL

CC1CC(C)C[N+](=c2sccs2)C1.[I-] (stereo not shown) [Compound No. 67, 1-(1,3-dithiol-2-ylidene)-3,5-dimethylpiperidinium iodide]
GPT activity (1 mg/kg): 2718 ± 431 Karmen units | Retained BSP (1 mg/kg): 111.4 ± 17.1 µg/mL | GPT activity (5 mg/kg): 372 ± 27 Karmen units | Retained BSP (5 mg/kg): 21.3 ± 4.0 µg/mL
